Results taken from patent US8609688B2, “Substituted imidazopyridinyl-aminopyridine compounds” (ArQule, Inc., priority 2011, dated 2013).

Columns and labels:
[1] = molecular target: T1, Full-length inactive AKT1 (Homo sapiens (Human), UniProt P31749); experiment: Thermal Shift Assay (protein-ligand binding); settings: Kd at 25° C. calculated using constant ligand binding enthalpy −15 kcal/mol; 15 μM compound, ANS dye
Protocol: Binding analysis. Protein-ligand binding was identified with the thermal shift assay which is based on the ligand-induced stabilization of the protein tertiary structure. The thermal stability of the ligand-Akt1 complex was assessed by subjecting the complex to a set temperature gradient and by comparison of the meltion temperature of the Akt1-ligand complex with the melting temperature of the protein alone. Protein unfolding was monitored by the fluorescence readout of an environmentally sensitive fluorescent dye, 1-anilinonaphthalene-8-sulfonic acid (ANS). […] The PCR plate was placed into a RT-PCR instrument and a temperature gradient was performed, increasing from 27 to 80° C., at 1° C./30 sec heat rate with a dwell time of 20 sec. The change in ANS fluorescence was measured using the filter set of 475 nm/525 nm excitation/emission.

[2] = molecular target: T1, Full-length inactive AKT1; experiment: Inactive Akt Alpha Screen Assay; settings: 8 nM inactive Akt1 activated by PDK1 and MAPKAPK2, lipid vesicles, 50 μM ATP, biotinylated crosstide; read-out: Akt1 biochemical assay IC50 AlphaScreen crosstide
Protocol: AKT1 activity was assayed using the GSK3-derived biotinylated peptide substrate, crosstide (biotin-[…]), and AlphaScreen™ (Amplified Luminescent Proximity Homogeneous Assay) technology. AKT1 activation was achieved by the addition of the activating kinases PDK1 and MAPKAPK2, lipid vesicles, and ATP. The extent of peptide phosphorylation was determined using a phospho-AKT substrate antibody and acceptor beads conjugated to Protein A and donor beads conjugated to streptavidin that bind to the biotin on the peptide. Excitation of the donor beads converted ambient oxygen to excited singlet oxygen which, when in close proximity to acceptor beads, reacted with acceptor beads resulting in signal amplification.
After a 20 minute pre-incubation at room temperature, the kinase reaction was initiated by the addition of 5 μL of an activation mixture diluted in assay buffer containing biotinylated crosstide, PDK1, MAPKAPK2, DOPS/DOPC, PtdIns(3,4,5)P3, and ATP for final concentrations of 60 nM biotinylated crosstide, 0.1 nM PDK1, 0.7 nM MK2, 5.5 μM DOPS, 5.5 μM DOPC, 0.5 μM PtdIns(3,4,5)P3, and 50 μM ATP. The plates were incubated for 30 minutes at room temperature, and then stopped in the dark by the addition of 10 μL stop/detection mixture prepared in assay buffer containing EDTA, AlphaScreen™ Streptavidin Donor and Protein A Acceptor beads, and phospho-AKT substrate antibody for final concentrations of 10 mM EDTA, 500 ng/well of both AlphaScreen™ Streptavidin Donor beads and Protein A Acceptor beads, and phospho-AKT substrate antibody at a final dilution of 1:350. Assay plates were incubated for 90 minutes at room temperature in the dark, and the plates were read on a Perkin Elmer Envision Multilabel plate reader (excitation wavelength: 640 nm, emission wavelength: 570 nm). […]

cells = experiment: Cell proliferation / viability GI50 (MTS assay or ATP quantitation assay); assay type: cell-based; settings: 72 hours treatment; cell line and assay (MTS or ATP quantitation) not stated
Protocol: Cell proliferation analysis. Cell survival was determined by the MTS assay. Briefly, cells were plated in a 96-well plate at 2,000-10,000 cells per well, cultured for 24 hours in complete growth medium, and then treated with various drugs and drug combinations for 72 hours. MTS was added and incubated for 4 hour, followed by assessment of cell viability using the microplate reader at 570 nm. Data were normalized to untreated controls and analyzed with Microsoft Excel.
Cell viability analysis. Cell viability was determined by the ATP quantitation assay. Briefly, cells were plated in a 96-well plate at 2,000-10,000 cells per well, cultured for 24 hours in complete growth medium, and then treated with various drugs or combination of drugs for 72 hours. CellTiter-Glo® reagent was added and incubated at room temperature for 10 minutes, followed by assessment of cell viability using a luminometer. Data were normalized to untreated controls and analyzed with Microsoft Excel.

Phospho-Akt (S473) = experiment: Cell ELISA Assay, Phospho-Akt detection; assay type: cell-based; settings: cells treated for 1 hour, cell line not stated
Protocol: Phospho-Akt detection analysis. Phospho-Akt (S473) was detected using cell ELISA. Briefly, cells were plated in a 96-well plate at 7,000-10,000 cells per well, cultured for 2-3 days in complete growth medium, and then treated with various drugs or combinations of drugs for 1 hour. The cells were fixed with ice-cold methanol, and washed with TBS supplemented with 1% H2O2. Phospho-Akt (S473) was probed with corresponding rabbit antibody as a primary antibody, and horseradish peroxidase conjugated goat anti-rabbit IgG. After treatment with SuperSignal® ELISA for 15 minutes, the detection was performed using a luminometer. Data were normalized to untreated controls and analyzed with Microsoft Excel.

T1 sequence (P31749 whole entry): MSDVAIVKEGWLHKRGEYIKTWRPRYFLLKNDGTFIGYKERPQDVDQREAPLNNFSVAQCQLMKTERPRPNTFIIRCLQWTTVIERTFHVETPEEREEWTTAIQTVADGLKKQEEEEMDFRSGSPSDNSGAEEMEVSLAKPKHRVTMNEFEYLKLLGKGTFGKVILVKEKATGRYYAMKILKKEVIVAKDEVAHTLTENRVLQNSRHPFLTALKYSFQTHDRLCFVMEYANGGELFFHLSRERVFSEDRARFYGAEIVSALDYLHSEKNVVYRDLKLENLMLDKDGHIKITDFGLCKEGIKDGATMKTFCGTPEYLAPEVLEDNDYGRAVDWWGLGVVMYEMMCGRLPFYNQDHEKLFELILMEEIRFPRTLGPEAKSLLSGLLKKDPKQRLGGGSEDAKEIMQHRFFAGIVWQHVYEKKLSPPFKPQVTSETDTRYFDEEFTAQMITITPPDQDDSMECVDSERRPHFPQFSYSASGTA

`Nc1ncccc1-c1nc2ccc(-c3cccc(NC(=O)C4CC4)c3)nc2n1-c1ccc(C2(N)CCC2)cc1` [Cmpd 3, N-(3-(3-(4-(1-aminocyclobutyl)phenyl)-2-(2-aminopyridin-3-yl)-3H-imidazo[4,5-b]pyridin-5-yl)phenyl)cyclopropane-carboxamide] was tested. Which Kd [1] did it give?
Its Kd is 7 nM.

And the IC50 [2]?
The IC50 was 3.09 nM.

And the GI50 (cells)?
The GI50 was 444000 nM.

And the IC50 (Phospho-Akt (S473))?
The IC50 was 29 nM.
